Test results reported in patent US8273740B2, “2-sulfanyl-benzoimidazol-1-yi-acetic acid derivatives as CRTH2 antagonists” (Actelion Pharmaceuticals, Ltd., priority 2004, dated 2012).

What follows are compounds tested against T1, hCRTH2 receptor (Homo sapiens, UniProt Q9Y5Y4) (assay: CRTH2 membranes radioligand binding assay ({3H}-PGD2); antagonist binding to the CRTH2 receptor). Conditions: {3H}-PGD2 radioligand binding, membranes of HEK 293 cells expressing recombinant hCRTH2; read-out: hCRTH2 BDG IC50.
T1 construct: expressed in transfected cells; host or cells: clonal HEK 293 cell line (membranes)
T1 sequence (Q9Y5Y4 1-395): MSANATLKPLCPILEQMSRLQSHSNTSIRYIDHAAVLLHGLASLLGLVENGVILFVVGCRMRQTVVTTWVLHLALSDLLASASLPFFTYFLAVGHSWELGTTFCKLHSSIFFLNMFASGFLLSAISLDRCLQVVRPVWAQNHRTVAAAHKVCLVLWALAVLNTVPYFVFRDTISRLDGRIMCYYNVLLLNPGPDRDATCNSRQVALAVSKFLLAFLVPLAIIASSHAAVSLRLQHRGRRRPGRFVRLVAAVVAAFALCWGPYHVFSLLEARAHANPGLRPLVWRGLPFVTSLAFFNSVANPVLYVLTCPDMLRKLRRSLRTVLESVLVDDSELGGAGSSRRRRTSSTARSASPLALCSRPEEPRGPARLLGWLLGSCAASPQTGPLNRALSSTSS
Description: Preparation of CRTH2 Membranes and Radioligand Binding Assay:
Cells are detached from culture plates in 5 ml buffer A per plate (5 mM Tris, 1 mM MgCl2x6H2O, 0.1 mM PMSF, 0.1 mM phenanthroline) using a police rubber and transferred into centrifugation tubes and frozen at −80° C. After thawing, the cells are centrifuged at 500 g for 5 min and then resuspended in buffer A. Cells are then fragmented by homogenization with a Polytron homogenizer for 30 s. The membrane fragments are centrifuged at 3000 g for 40 min and resuspended in membranes in buffer B (50 mM Tris, 25 mM MgCl2, 250 mM saccharose, pH 7.4) and aliquots are stored frozen.
Binding assay is performed in a total volume of 250 μl. […] For unspecific binding, PGD2 is added to the reaction mixture at 1 μM final concentration. This binding assay mix is incubated at rt for 90 min and then filtered through a GF/C filter plate. The filter is washed three times with ice cold binding buffer. Then, 40 μl per well Microscint-40 (Packard) are added and the bound radioactivity is quantified by means of Topcount (Packard).

| SMILES | IC50 [nM] |
| --- | --- |
| CCOC(=O)c1ccc(N(CCCSc2nc3ccccc3n2CC(=O)O)C(=O)C(c2ccccc2)C2CCCCC2)cc1 (racemic) | 7 |
| CCCCOC(=O)N(CCCSc1nc2cc([N+](=O)[O-])ccc2n1CC(=O)O)CCc1ccccc1 [{2-[3-(Butoxycarbonyl-phenethyl-amino)-propylsulfanyl]-5-nitro-benzoimidazol-1-yl}-acetic acid] | 1 |
| O=C(O)Cn1c(SCC2CCN(C(=O)c3ccc(Br)cc3)C2)nc2cc(F)ccc21 (racemic) | 23 |
| CCCCC(=O)N(CCCSc1nc2ccccc2n1CC(=O)O)CC(c1ccccc1)c1ccccc1 [(2-{3-[(2,2-Diphenyl-ethyl)-pentanoyl-amino]-propylsulfanyl}-benzoimidazol-1-yl)-acetic acid] | 15 |
| CC(=O)c1ccc(OCCCO)c(CSc2nc3cc(F)ccc3n2CC(=O)O)c1 [{2-[5-Acetyl-2-(3-hydroxy-propoxy)-benzylsulfanyl]-5-fluoro-benzoimidazol-1-yl}-acetic acid] | 2 |
| CCCC(=O)N1CCCC(CSc2nc3cc(Cl)c(Cl)cc3n2CC(=O)O)C1 (centres unmarked) [[2-(1-Butyryl-piperidin-3-ylmethylsulfanyl)-5,6-dichloro-benzoimidazol-1-yl]-acetic acid] | 4 |
| CCCCC(=O)N(CCCSc1nc2ccccc2n1CC(=O)O)CCc1ccccc1 [{2-[3-(Pentanoyl-phenethyl-amino)-propylsulfanyl]-benzoimidazol-1-yl}-acetic acid] | 12 |
| CCCCOC(=O)N(CCCSc1nc2ccccc2n1CC(=O)O)CCc1ccccc1 | 10 |
| O=C(O)Cn1c(SCC2CCCN(C(=O)c3ccc(Br)cc3)C2)nc2ccccc21 (racemic) | 18 |
| COc1ccc(C(C)=O)cc1CSc1nc2cc(C=O)ccc2n1CC(=O)O [[2-(5-Acetyl-2-methoxy-benzylsulfanyl)-5-formyl-benzoimidazol-1-yl]-acetic acid] | 6 |
| COc1ccc(C(C)=O)cc1CSc1nc2cc(F)ccc2n1C(C)C(=O)O (racemic) | 13 |
| COc1ccc(C(C)=O)cc1CSc1nc2ccccc2n1CC(=O)O [[2-(5-Acetyl-2-methoxy-benzylsulfanyl)-benzoimidazol-1-yl]-acetic acid] | 9 |
| COC(=O)c1cccc(CSc2nc3cc([N+](=O)[O-])ccc3n2CC(=O)O)c1 [[2-(3-Methoxycarbonyl-benzylsulfanyl)-5-nitro-benzoimidazol-1-yl]-acetic acid] | 15 |
| CCCC(=O)N1CCCC(CSc2nc3ccccc3n2CC(=O)O)C1 (racemic) | 22 |

Each compound was assayed against T1, hCRTH2 receptor (assay: Intracellular calcium mobilization assay (FLIPR), antagonism of prostaglandin D2). Conditions: not given.
Assay type: cell-based
Description: A functional assay with cells expressing the human CRTH2 receptor may be used to detect changes in the levels of intracellular calcium concentration following compound treatment. After addition of the compound the cells are challenged with PGD2. […] The relative values of the remaining activity were used to determine IC50 values by curve fitting the data to a single site to a four-parameter logistic sigmoid dose response curve of the equation (A+((B−A)/(1+((C/x)^D)))).
The ability of the compounds to inhibit PGD2 induced change of intracellular calcium levels via CRTH2 activation may be measured by methods known of one skilled in the art or by the method described below in the experimental part.
Intracellular Calcium Mobilization Assay (FLIPR):
Cells are detached from culture dishes using a dissociation buffer (0.02% EDTA in PBS, Gibco) for 1 min, and collected by centrifugation at 200 g at rt for 5 min in assay buffer [equal parts of Hank's BSS (HBSS, Bioconcept) and DMEM (low glucose, without phenol red, Gibco)].
Stock solutions of test compounds are made up at a concentration of 10 mM in DMSO, and serially diluted in assay buffer to concentrations required for inhibition dose response curves. Prostaglandin D2 (Biomol, Plymouth Meeting, Pa.) is used as an agonist.
A FLIPR384 instrument (Molecular Devices) is operated according to the manufacturer's standard instructions, adding 4 μl of test compound dissolved at 10 mM in DMSO and diluted prior to the experiment in assay buffer to obtain the desired final concentration. An assay buffer containing 10 μl of 80 nM prostaglandin D2 (Biomol, Plymouth Meeting, Pa.), supplemented with 0.8% bovine serum albumin (fatty acid content <0.02%, Sigma), is then added to obtain a final concentration of 10 nM and 0.1%, respectively. […] Emission peak values above base level after prostaglandin D2 addition are exported after base line subtraction. Values are normalized to high-level control (no test compound added) after subtraction of base line value (no prostaglandin D2 added). The program XL1fit 3.0 (IDBS) is used to fit the data to a single site dose response curve of the equation (A+((B−A)/(1+((C/x)^D)))) and to calculate the IC50 values.

| SMILES | IC50 [nM] |
| --- | --- |
| CCCCNC(=O)c1ccc(OC)c(CSc2nc3cc(F)ccc3n2CC(=O)O)c1 [[2-(5-Butylcarbamoyl-2-methoxy-benzylsulfanyl)-5-fluoro-benzoimidazol-1-yl]-acetic acid] | 21 |

Same assay, conditions: HEK-293 cells expressing hCRTH2, agonist prostaglandin D2 10 nM; read-out: hCRTH2 FLIPR IC50

| SMILES | IC50 [nM] |
| --- | --- |
| COC(=O)c1ccc(OC)c(CSc2nc3ccccc3n2CC(=O)O)c1 | 201 |
| CCOC(=O)c1ccc(N(CCCSc2nc3ccccc3n2CC(=O)O)C(=O)CC(c2ccccc2)c2ccccc2)cc1 | 128 |
| O=C(O)Cn1c(SCC2CCN(C(=O)c3ccc(Br)cc3)C2)nc2cc(F)ccc21 (racemic) | 88 |
| O=C(O)Cn1c(SCC2CCCN(C(=O)c3cccc(Cl)c3)C2)nc2ccccc21 (racemic) | 156 |
| O=C(O)Cn1c(SCCC(c2ccccc2)c2ccccc2)nc2ccc([N+](=O)[O-])cc21 [[2-(3,3-Diphenyl-propylsulfanyl)-6-nitro-benzoimidazol-1-yl]-acetic acid] | 212 |
| COc1ccc(C(=O)N2CCc3ccccc32)cc1CSc1nc2cc(F)ccc2n1CC(=O)O [{2-[5-(2,3-Dihydro-indole-1-carbonyl)-2-methoxy-benzylsulfanyl]-5-fluoro-benzoimidazol-1-yl}-acetic acid] | 4 |
| CCCC(=O)N1CCCC(CSc2nc3cc(Cl)c(Cl)cc3n2CC(=O)O)C1 (centres unmarked) [[2-(1-Butyryl-piperidin-3-ylmethylsulfanyl)-5,6-dichloro-benzoimidazol-1-yl]-acetic acid] | 148 |
| COC(=O)c1cccc(CSc2nc3cc([N+](=O)[O-])ccc3n2CC(=O)O)c1 [[2-(3-Methoxycarbonyl-benzylsulfanyl)-5-nitro-benzoimidazol-1-yl]-acetic acid] | 15 |
